Data published in patent publication US20230081539A1, “SUPRACHOROIDAL DELIVERY OF DRUG PARTICLES TO REDUCE TOXICITY” (The Johns Hopkins University, priority 2020, published 2023).

Legend:
[1] = Pharmacokinetics in rats: TRF and PRF in ocular tissues by LC-MS/MS after suprachoroidal PLGA-ACF MPs
Method: The injection site was marked in each eye. Six rats were euthanized at each of the following time points after injection: 1 and 2 weeks, and 1, 2, 3, and 4 months. After removal of the anterior segment and lens of each eye, the retina and RPE/choroid/sclera were dissected and cut in half along the horizontal meridian through the optic nerve head and frozen separately. Samples were analyzed for acriflavine and proflavine by liquid chromatography with tandem mass spectrometry (LC-MS/MS). Tissue samples were homogenized in 200 μl of methanol and homogenized with Next Advance Bullet Blender. The analytes were extracted from 25 μl of homogenized tissue with 250 μl of acetonitrile containing internal standard (5 ng/ml of acridine orange). Samples were centrifuged and the top layer was transferred to an auto sampler vial for LC/MS/MS analysis.
Mobile phase A was water containing 0.1% formic acid and mobile phase B was acetonitrile containing 0.1% formic acid. The gradient started with mobile phase B held at 50% for 1 minute and increased to 100% over 0.5 minutes; 100% mobile phase B was held for 1.5 minutes and then returned back to 50% mobile phase B and allowed to equilibrate for 1 minute. […] The column effluent was monitored using a Sciex 4500 triple quadrupole mass spectrometer with electrospray ionization operating in positive mode. […]

[2] = tested on: choroidal NV at Bruch's membrane rupture sites; experiment: Mouse CNV model, intravitreous injection of free ACF or PRF; format: in vivo, C57BL/6 mice; conditions: mice, 1 μl intravitreous injection of 50 ng immediately after rupture of Bruch's membrane, read after seven days
Method: Seven days after rupture of Bruch's membrane, mice were euthanized, eyecups were fixed and stained with FITC-labeled Griffonia Simplicifolia lectin (GSA, Vector Laboratories, Burlingame, Calif.), and flat mounted. The area of choroidal NV at each Bruch's membrane rupture site was measured by image analysis by an observer masked with respect to treatment group. The area of choroidal NV at the 3 rupture sites in one eye was averaged to give one experimental value for each animal. […] One week after rupture of Bruch's membrane, choroidal flat mounts were stained with FITC-Griffonia simplicifolia lectin.

[3] = target: HIF-2 (Homo sapiens, UniProt Q99814); conditions: in vitro; cited from earlier work
[4] = target: HIF-1 (Homo sapiens, UniProt Q16665); conditions: in vitro; cited from earlier work
Sequence of HIF-1 (Q16665 whole entry): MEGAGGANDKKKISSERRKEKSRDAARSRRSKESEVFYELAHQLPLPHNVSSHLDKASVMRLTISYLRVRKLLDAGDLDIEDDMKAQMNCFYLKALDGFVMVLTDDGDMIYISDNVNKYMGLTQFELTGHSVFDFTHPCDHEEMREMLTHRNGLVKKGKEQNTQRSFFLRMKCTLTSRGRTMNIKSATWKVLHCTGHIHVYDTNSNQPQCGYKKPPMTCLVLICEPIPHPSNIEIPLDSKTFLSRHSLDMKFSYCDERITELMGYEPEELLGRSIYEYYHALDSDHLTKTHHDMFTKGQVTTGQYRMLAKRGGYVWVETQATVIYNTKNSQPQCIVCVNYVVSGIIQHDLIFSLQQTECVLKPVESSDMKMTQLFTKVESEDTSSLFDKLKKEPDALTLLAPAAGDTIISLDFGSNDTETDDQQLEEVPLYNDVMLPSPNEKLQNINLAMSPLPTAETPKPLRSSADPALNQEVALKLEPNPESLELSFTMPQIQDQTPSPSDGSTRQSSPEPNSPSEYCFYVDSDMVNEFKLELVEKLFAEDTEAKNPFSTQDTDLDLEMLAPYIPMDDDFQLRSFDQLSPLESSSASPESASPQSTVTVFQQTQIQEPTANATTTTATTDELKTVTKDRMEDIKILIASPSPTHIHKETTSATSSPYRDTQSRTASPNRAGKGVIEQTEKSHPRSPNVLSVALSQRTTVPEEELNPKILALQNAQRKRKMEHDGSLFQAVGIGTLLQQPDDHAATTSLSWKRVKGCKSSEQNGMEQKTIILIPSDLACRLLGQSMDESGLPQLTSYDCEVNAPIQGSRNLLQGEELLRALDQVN

Sequence of HIF-2 (Q99814 whole entry): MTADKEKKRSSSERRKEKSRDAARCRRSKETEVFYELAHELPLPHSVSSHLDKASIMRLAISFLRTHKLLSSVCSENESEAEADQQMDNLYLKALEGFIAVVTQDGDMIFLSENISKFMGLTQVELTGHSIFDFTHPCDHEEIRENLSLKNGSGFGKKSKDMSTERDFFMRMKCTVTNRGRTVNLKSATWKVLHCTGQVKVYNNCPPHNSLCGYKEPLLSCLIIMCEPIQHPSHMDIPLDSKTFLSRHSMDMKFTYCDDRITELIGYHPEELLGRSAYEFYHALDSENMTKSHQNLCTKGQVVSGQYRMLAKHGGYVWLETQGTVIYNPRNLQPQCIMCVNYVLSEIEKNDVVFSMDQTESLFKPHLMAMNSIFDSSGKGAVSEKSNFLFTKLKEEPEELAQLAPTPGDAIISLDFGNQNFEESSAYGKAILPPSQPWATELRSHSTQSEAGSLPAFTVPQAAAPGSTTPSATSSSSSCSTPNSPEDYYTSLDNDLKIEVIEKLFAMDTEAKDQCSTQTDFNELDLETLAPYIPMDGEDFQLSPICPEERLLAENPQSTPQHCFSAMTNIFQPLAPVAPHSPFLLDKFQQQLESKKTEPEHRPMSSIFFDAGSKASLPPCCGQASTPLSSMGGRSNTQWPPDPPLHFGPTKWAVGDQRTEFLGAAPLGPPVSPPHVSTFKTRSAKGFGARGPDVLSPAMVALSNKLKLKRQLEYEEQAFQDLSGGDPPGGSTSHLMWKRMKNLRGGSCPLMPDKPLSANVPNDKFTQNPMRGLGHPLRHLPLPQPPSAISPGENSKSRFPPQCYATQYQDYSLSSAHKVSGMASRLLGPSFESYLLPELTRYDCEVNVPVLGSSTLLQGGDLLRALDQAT

C[n+]1c2cc(N)ccc2cc2ccc(N)cc21.[Cl-] [TRF, trypaflavine]
duration of steady-state levels in the low nM range in RPE/choroid and retina ([1]; suprachoroidal PLGA-ACF MPs): at least 16 weeks
steady-state level in inferior retina ([1]; suprachoroidal PLGA-ACF MPs containing 10 μg ACF, 2 through 16 weeks): ~0.1 nM

Nc1ccc2cc3ccc(N)cc3nc2c1 [PRF, proflavine]
area of CNV at Bruch's membrane rupture sites compared with PBS [2]: almost identical to that of eyes treated with PBS

C[C@H]1O[C@@H](O[C@H]2[C@@H](O)C[C@H](O[C@H]3[C@@H](O)C[C@H](O[C@H]4CC[C@@]5(C)[C@H](CC[C@@H]6[C@@H]5C[C@@H](O)[C@]5(C)[C@@H](C7=CC(=O)OC7)CC[C@]65O)C4)O[C@@H]3C)O[C@@H]2C)C[C@H](O)[C@@H]1O [digoxin]
concentration that inhibits the transcriptional activity of HIF-2 [3]: nanomolar

C[C@@H]1O[C@@H](O[C@H]2C[C@@H](O)[C@]3(CO)[C@H]4[C@H](O)C[C@]5(C)[C@@H](C6=CC(=O)OC6)CC[C@]5(O)[C@@H]4CC[C@]3(O)C2)[C@H](O)[C@H](O)[C@H]1O [ouabain]
concentration that inhibits the transcriptional activity of HIF-2 [3]: nanomolar

3,6-diamino-10-methylacridinium chloride mixed with 3,6-acridinediamine [ACF]
concentration that inhibits the transcriptional activity of HIF-2 [3]: nanomolar
concentration that inhibits the transcriptional activity of HIF-1 [4]: nanomolar
area of CNV at Bruch's membrane rupture sites compared with PBS [2]: statistically significant reduction

C[C@@H]1O[C@@H](O[C@@H]2C=C3CC[C@@H]4[C@H](CC[C@]5(C)[C@@H](c6ccc(=O)oc6)CC[C@]45O)[C@@]3(C)CC2)[C@H](O)[C@H](O)[C@H]1O [proscillaridin A]
concentration that inhibits the transcriptional activity of HIF-2 [3]: nanomolar
concentration that inhibits the transcriptional activity of HIF-1 [4]: nanomolar
